ChEMBL document CHEMBL1135227, “Substituted 2-(R)-methyl piperazines as muscarinic M(2) selective ligands” (Bioorg Med Chem Lett, 2002)
pKi: −log10 of the molar value.

Tests used:
[1] = target: T1, Muscarinic acetylcholine receptor M2 (Homo sapiens, UniProt P08172); assay: Binding affinity against human cloned Muscarinic acetylcholine receptor M2.
T1 sequence (P08172 whole entry): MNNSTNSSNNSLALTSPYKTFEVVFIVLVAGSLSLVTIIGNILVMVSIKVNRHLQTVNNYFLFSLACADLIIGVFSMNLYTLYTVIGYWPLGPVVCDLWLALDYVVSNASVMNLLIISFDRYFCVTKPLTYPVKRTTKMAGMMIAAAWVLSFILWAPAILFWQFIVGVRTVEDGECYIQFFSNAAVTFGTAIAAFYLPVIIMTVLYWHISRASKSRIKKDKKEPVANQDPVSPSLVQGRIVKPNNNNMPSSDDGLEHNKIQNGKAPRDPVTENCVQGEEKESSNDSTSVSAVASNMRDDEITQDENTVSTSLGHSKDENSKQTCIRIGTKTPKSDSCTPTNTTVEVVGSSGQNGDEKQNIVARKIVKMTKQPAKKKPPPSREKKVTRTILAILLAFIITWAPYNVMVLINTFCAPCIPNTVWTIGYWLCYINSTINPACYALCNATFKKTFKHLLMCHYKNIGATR

[2] = target: T2, Muscarinic acetylcholine receptor M1 (Homo sapiens) (UniProt P11229); assay: Ratio of binding affinities at human cloned Muscarinic acetylcholine receptor M1 and human cloned Muscarinic acetylcholine receptor M2.
T2 sequence (whole entry): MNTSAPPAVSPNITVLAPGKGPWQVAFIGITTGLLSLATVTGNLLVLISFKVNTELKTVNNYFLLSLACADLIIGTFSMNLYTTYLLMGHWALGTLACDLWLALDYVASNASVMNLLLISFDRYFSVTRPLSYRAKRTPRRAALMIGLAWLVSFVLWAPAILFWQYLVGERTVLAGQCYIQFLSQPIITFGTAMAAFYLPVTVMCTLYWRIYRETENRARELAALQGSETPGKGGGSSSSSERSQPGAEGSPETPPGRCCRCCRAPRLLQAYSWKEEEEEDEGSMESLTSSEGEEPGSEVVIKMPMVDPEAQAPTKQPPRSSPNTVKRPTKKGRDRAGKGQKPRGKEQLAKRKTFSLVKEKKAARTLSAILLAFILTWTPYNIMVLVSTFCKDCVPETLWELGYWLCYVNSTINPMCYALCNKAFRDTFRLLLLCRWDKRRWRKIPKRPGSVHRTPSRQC

[3] = target: T1, Muscarinic acetylcholine receptor M2; assay: Compound was tested for its binding affinity against cloned human Muscarinic acetylcholine receptor M2

Structure (SMILES) | pKi [1] | Ratio [2] | pKi [3]
COc1ccc(S(=O)(=O)c2ccc([C@@H](C)N3CCN(C4CCCCC4)C[C@H]3C)cc2)cc1 | 9.82 | 30 | –
COc1ccc(S(=O)(=O)c2ccc([C@H](C)N3CCN(C4CCCCC4)C[C@H]3C)cc2)cc1 | 9.52 | 44 | –
C[C@@H]1CN(C2CCN(C(=O)c3ccccc3)CC2)CCN1[C@@H](C)c1ccc(S(=O)(=O)c2ccc3c(c2)OCO3)cc1 | 9.05 | 32 | –
CCNC(=O)N1CCC(N2CCN([C@@H](C)c3ccc(S(=O)(=O)c4ccc5c(c4)OCO5)cc3)[C@H](C)C2)CC1 | 8.60 | 10 | –
C[C@@H]1CN(C2CCCCC2)CCN1[C@H](C)c1ccc(S(=O)(=O)c2ccc3c(c2)OCO3)cc1 | 10.52 | 30 | –
CCS(=O)(=O)N1CCC(N2CCN([C@@H](C)c3ccc(S(=O)(=O)c4ccc5c(c4)OCO5)cc3)[C@H](C)C2)CC1 | 9.15 | 109 | –
COc1ccc(S(=O)(=O)c2ccc([C@@H](C)N3CCN(C4CCCCC4)[C@H](C)C3)cc2)cc1 | 9.85 | 10 | –
COc1ccc(S(=O)(=O)c2ccc(C(C)N3CCN(C4CCCCC4)CC3)cc2)cc1 (stereo not given) | – | 10 | –
C[C@@H]1CN(C2CCCCC2)CCN1[C@@H](C)c1ccc(S(=O)(=O)c2ccc3c(c2)OCO3)cc1 | 10.52 | 61 | –
CCCS(=O)(=O)N1CCC(N2CCN([C@@H](C)c3ccc(S(=O)(=O)c4ccc5c(c4)OCO5)cc3)[C@H](C)C2)CC1 | 9.70 | 281 | –
C[C@@H]1CN(C2CCN(S(=O)(=O)c3ccccc3)CC2)CCN1[C@@H](C)c1ccc(S(=O)(=O)c2ccc3c(c2)OCO3)cc1 | 9.10 | 40 | –
CCCCC(=O)N1CCC(N2CCN([C@@H](C)c3ccc(S(=O)(=O)c4ccc5c(c4)OCO5)cc3)[C@H](C)C2)CC1 | 8.89 | 15 | –
COc1ccc(S(=O)(=O)c2ccc([C@@H](C)N3CCN(C4CCCCC4)[C@@H](C)C3)cc2)cc1 | 10.40 | 10 | –
COc1ccc(S(=O)(=O)c2ccc(CN3CCN(C4CCCCC4)C[C@H]3C)cc2)cc1 | 9.52 | 23 | –
COc1ccc(S(=O)(=O)c2ccc(C(C#N)N3CCN(C4CCCCC4)C[C@H]3C)cc2)cc1 (stereo not given in full) | – | 36 | 9.80
C[C@@H]1CN(C2CCNCC2)CCN1[C@@H](C)c1ccc(S(=O)(=O)c2ccc3c(c2)OCO3)cc1 | 8.05 | 4 | –
COc1ccc(S(=O)(=O)c2ccc(C(C#N)N3CCN(C4CCCCC4)C[C@@H]3C)cc2)cc1 (stereo not given in full) | 7.80 | 5 | –
CCCCS(=O)(=O)N1CCC(N2CCN([C@@H](C)c3ccc(S(=O)(=O)c4ccc5c(c4)OCO5)cc3)[C@H](C)C2)CC1 | 9.70 | 198 | –
